According to patent EP4431090A1, “SOLFONAMIDES ACTING AS MITOCHONDRIAL COMPLEX I MODULATOR COMPOUNDS” (Istesso 1 Limited, priority 2023, dated 2024):
Several values for one entry are separate records, joined by “and”; a condition that tells them apart may be missing. Equal entries are not always repeated. Marks after values point to notes of the source that are not given here.

How the values were obtained:
[1] = tested on: collagen-induced arthritis; assay: Mouse collagen-induced arthritis; type: in vivo, DBA/1j mice
[2] = tested on: bleomycin-induced lung fibrosis; assay: Mouse bleomycin-induced lung fibrosis; type: in vivo, C57BI/6 mice; settings: scale 0-5, Dose (mg/kg/day): Nintedanib 30 b.d., HMC-C-01-A 10 q.d., mean ± s.e.m.
Method: Eight- to ten-week-old female C57BI/6 mice were used for all procedures. Animals were housed in groups of 4 and were maintained at 22°C ± 3°C on a 12-hour light/dark cycle with food and water ad libitum. Bleomycin was prepared by dissolving in saline at 1.5 mg/mL. All mice were administered intranasally with 3 mg/kg bleomycin. Seven days after bleomycin administration, vehicle control, nintedanib or MCIM compound administration was initiated. Nintedanib was administered twice daily (b.d.) by oral gavage at a total daily dose of 30 mg/kg/day for 14 days. MCIM compounds were administered once daily (q.d.) by oral gavage at a total daily dose of either 10 or 20 mg/kg/day for 14 days.
On the 14th day, lungs were collected after perfusion. The left lung lobe was assessed for fibrosis by measuring total lung hydroxyproline levels. The right lung lobes were fixed and sectioned for histopathology. […]
The data were analysed by generating an average histopathology score across each treatment group. […]

[3] = tested on: human primary lung fibroblasts; assay: Cell proliferation (BrdU incorporation, nucleus counts) with compound washout; type: cell-based; settings: for cell proliferation (BRdU incorporation and nucleus counts): pyruvate-restricted conditions, 24-hours compound treatment; for recovery of cell proliferation after compound washout (BrdU incorporation and nucleus counts): 24-hours incubation in pyruvate-free media, highest tested concentration
Method: Human primary lung fibroblasts were plated at a concentration of 5 × 10^3 cells/well in 96well plates in 100 µL DMEM complete media (5.5 mM glucose, 2 mM L-glutamine, and 1 mM pyruvate) containing 1% penicillin-streptomycin and 10% heat-inactivated foetal bovine serum. Cells were incubated overnight at 37°C / 5% CO2 to allow cell attachment. On the day of the treatment, cell culture medium was removed, and the cells were washed three times with Gibco™ DMEM, no glucose, no L-glutamine, no pyruvate, no phenol red + 1% penicillin-streptomycin and 10% heat inactivated foetal bovine serum (termed `basal' culture medium). Fresh cell culture media (without pyruvate) was added to the wells. Test compounds were prepared as 10x final concentration solutions in pyruvate-free medium. Following 24-hours compound treatment (in 5% CO2,37°C cell incubator), spent medium was removed from all wells and were thoroughly washed thrice with basal cell culture medium. For washout assay condition, 100 µL of pyruvate-free media was added per well. For No Washout, 90 µL of pyruvate-free media and 10 µL of 10x final assay concentration prepared test agents (or assay media) were added per well. Recovery of cell proliferation was measured after 24-hours incubation at 37°C / 5% CO2 with either pyruvate-free media (without re-addition of the compound) or re-addition of compounds in pyruvate-free media.
To assess nucleus counts, formaldehyde was added to a final concentration of 4%. Following a further 20-minute incubation at room temperature, the medium was aspirated, the cells were washed twice with 200 µL TBS-T (1x TBS + 0.1% Tween 20) and the nuclei were stained with 50 µL of PBS containing 10% heat inactivated foetal bovine serum, 0.1% Triton-X-100 and 2 µM Hoechst dye. Following a 30-minute incubation at room temperature, protected from light, the cells were washed twice with TBS-T, and cells were counted in 100 µL PBS solution using an ImageXpress Pico system with stitched plate acquisition (4x magnification), DAPI channel (50 ms exposure, -3 digital confocal setting).
When cells grow and divide (termed proliferation), cells progress through the cell cycle, a tightly regulated process that consists of two main activities: DNA replication and mitosis/cell division. As a method of accurately quantifying cellular proliferation rate, the pyrimidine analogue, BrdU can be utilised to measure DNA replication. BrdU can be incorporated into the newly synthesized DNA in place of thymidine. Following incubation of proliferating cells with BrdU for 20 hours, labelling solution was removed thoroughly, and cells were fixed with 70 µL of fix solution for 30 min at room temperature. […] Eu-fluorescence was measured in a time-resolved manner using the PHERAstar FSX (Ex337/ Em620 nm). […]

[4] = tested on: human primary myeloid cells (osteoclasts); assay: Mitochondrial phenotype assessment in osteoclasts (electron microscopy); type: cell-based; settings: rotenone 100 nM; Figure 3B
Method: Peripheral blood mononuclear cells were isolated from human whole blood by differential centrifugation over Ficoll-Paque PLUS (GE Healthcare Biosciences). CD14+ monocytes were purified from the freshly isolated PBMCs using the CD14+ selection kit (StemCells. UK) by positive magnetic selection according to manufacturer's instructions . Cells were differentiated to osteoclasts by adding 1×10^6 ml-1 cells in complete minimum essential medium-alpha supplemented with 10% heat inactivated fetal bovine serum (FBS, Invitrogen,UK),2mM glutamine (Invitrogen,UK) 20U ml-1 penicillin, 100ug/ml streptomycin (Sigma ALdrich, UK) along with 25ng ml-1 recombinant human M-CSF (Peprotech, UK) and 25 ng ml-1 RANKL for 6 days. On th^e 6th day, the cells were treated with test compound (final concentration 0.03-1 uM, 0,05 % DMSO) or a control, rotenone (100 nM).
Adherent cells were fixed in 2.5% glutaraldehyde in 0.1 M cacodylate buffer, pH 7.4, for 1 h, post fixed with 1% osmium tetroxide (Electron Microscopy Science), dehydrated in a graded series of ethanol, and embedded in Epon (Electron Microscopy Science). The embedded samples were sectioned by an ultramicrotome (Ultracut E, Richert-Jung, Leica Microsystem). Thin sections (90 nm thick) were collected on 300 mesh nickel grids and stained with uranyl acetate (Electron Microscopy Science) and lead citrate. […]

## C[C@@H]1CCN(C(=O)CC#N)C[C@@H]1N(C)c1ncnc2[nH]ccc12 [Tofacitinib]
[1]; 10 mg/kg/day MCIM compound, 3 mg/kg/day etanercept, Figure 23, tofacitinib data not shown
  appearance of the osteoid/new bone formed: reactive and sporadic deposits
[1]; once daily for 14 days, Dose (mg/kg/day) as printed: Etanercept 3, HMC-C-01-A 3, all others 10, sum from all limbs per animal per group
  Bone resorption (sum) Treatment value: 48**
[1]; osteoid zones, once daily for 14 days, Dose (mg/kg/day) as printed: Etanercept 3, HMC-C-01-A 3, all others 10, sum from all limbs per animal per group
  Bone formation (sum) Treatment value: 0

## COC(=O)c1ccc2c(c1)NC(=O)/C2=C(\Nc1ccc(N(C)C(=O)CN2CCN(C)CC2)cc1)c1ccccc1 [Nintedanib]
[2]; hyperplasia score, ABD900 20 q.d., two studies
  AT2 cell number Treatment value: 1.6 ± 0.2 and 1.1 ± 0.1
[2]; hypertrophy score
  AT2 cell size Treatment value: 1.6 ± 0.2

## C=C(C)[C@H]1Cc2c(ccc3c2O[C@@H]2COc4cc(OC)c(OC)cc4[C@@H]2C3=O)O1 [rotenone]
[3]
  cell proliferation (BRdU incorporation and nucleus counts): reduce cell proliferation
  recovery of cell proliferation after compound washout (BrdU incorporation and nucleus counts): no recovery
[4]
  mitochondrial morphology: increased numbers of abnormal mitochondria which were more rounded and had condensed cristae with evidence of fragmentation

## Cc1nc(-c2nc(-c3ccc(OC(F)(F)F)cc3)no2)nn1Cc1cccc(N2CCC(S(C)(=O)=O)CC2)c1 [IACS-010759]
[3]
  cell proliferation (BRdU incorporation and nucleus counts): reduce cell proliferation
  recovery of cell proliferation after compound washout (BrdU incorporation and nucleus counts): no recovery
